Experiments:
THZ1 = compound: CN(C)C/C=C/C(=O)Nc1ccc(C(=O)Nc2cccc(Nc3ncc(Cl)c(-c4c[nH]c5ccccc45)n3)c2)cc1 [THZ1]; experiment: GR value, 72 h; higher = faster growth (1 = untreated, <0 = killing);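 also: breast cancer and non-malignant breast epithelial lines, nine half-log doses, viable cells counted by Hoechst and LIVE/DEAD dye imaging versus time-zero plates and DMSO controls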
THZ531 [1] = compound: T1, CN(C)C/C=C/C(=O)Nc1ccc(C(=O)N2CCC[C@@H](Nc3ncc(Cl)c(-c4c[nH]c5ccccc45)n3)C2)cc1 [THZ531]; experiment: as above
BSJ-03-123 = compound: CC(=O)c1c(C)c2cnc(Nc3ccc(N4CCN(CCOCCOCCOCCNC(=O)COc5cccc6c5C(=O)N(C5CCC(=O)NC5=O)C6=O)CC4)cn3)nc2n(C2CCCC2)c1=O [BSJ-03-123]; experiment: as above
[2] = compound: CCc1cnn2c(NCc3ccc[n+]([O-])c3)cc(N3CCCC[C@H]3CCO)nc12; experiment: as above
[3] = compound: CCN1CCN(Cc2ccc(Nc3ncc(F)c(-c4cc(F)c5nc(C)n(C(C)C)c5c4)n3)nc2)CC1; experiment: as above
YKL-5-124 = compound: C=CC(=O)Nc1ccc(C(=O)Nc2[nH]nc3c2CN(C(=O)N[C@H](CN(C)C)c2ccccc2)C3(C)C)cc1 [YKL-5-124]; experiment: as above
LEE011/Ribociclib = compound: CN(C)C(=O)c1cc2cnc(Nc3ccc(N4CCNCC4)cn3)nc2n1C1CCCC1 [LEE011/Ribociclib]; experiment: as above
[4] = compound: CC(=O)c1c(C)c2cnc(Nc3ccc(N4CCNCC4)cn3)nc2n(C2CCCC2)c1=O; experiment: as above
THZ531 [5] = compound: T1, THZ531
Tivantinib/ARQ197 = compound: O=C1NC(=O)[C@@H](c2cn3c4c(cccc24)CCC3)[C@@H]1c1c[nH]c2ccccc12 [Tivantinib/ARQ197]
Paclitaxel = compound: CC(=O)O[C@H]1C(=O)[C@@]2(C)[C@H]([C@H](OC(=O)c3ccccc3)[C@]3(O)C[C@H](OC(=O)[C@H](O)[C@@H](NC(=O)c4ccccc4)c4ccccc4)C(C)=C1C3(C)C)[C@]1(OC(C)=O)CO[C@@H]1C[C@@H]2O [Paclitaxel]
senexin b = compound: CN1CCN(C(=O)c2ccc3cc(CCNc4ncnc5ccc(C#N)cc45)ccc3c2)CC1 [senexin b]
Pictilisib/GDC0941 = compound: CS(=O)(=O)N1CCN(Cc2cc3nc(-c4cccc5[nH]ncc45)nc(N4CCOCC4)c3s2)CC1 [Pictilisib/GDC0941]
AZD6738 = compound: C[C@@H]1COCCN1c1cc(C2([S@](C)(=N)=O)CC2)nc(-c2cc[nH]c3nccc2-3)n1 [AZD6738]
Ceritinib/LDK378 = compound: Cc1cc(Nc2ncc(Cl)c(Nc3ccccc3S(=O)(=O)C(C)C)n2)c(OC(C)C)cc1C1CCNCC1 [Ceritinib/LDK378]
Rucaparib = compound: CNCc1ccc(-c2[nH]c3cc(F)cc4c3c2CCNC4=O)cc1 [Rucaparib]
BSJ-01-175 = compound: CN(C)C/C=C/C(=O)Nc1ccc(O[C@@H]2CCC[C@@H](Nc3ncc(Cl)c(-c4c[nH]c5ccccc45)n3)C2)cc1 [BSJ-01-175]
Cediranib/AZD2171 = compound: COc1cc2c(Oc3ccc4[nH]c(C)cc4c3F)ncnc2cc1OCCCN1CCCC1 [Cediranib/AZD2171]
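For GR50, 72 h in this document: breast cancer and non-malignant breast epithelial cell lines, Deep Dye Drop or Dye Drop imaging, nine half-log doses, GR normalized to time-zero plates and DMSO-only controls.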

HCC202
GR value (THZ1; 0.0001 µM): 0.915 GR
GR value (THZ1; 0.0003162 µM): 1.02 GR
GR value (THZ1; 0.001 µM): 0.961 GR
GR value (THZ1; 0.003162 µM): 0.866 GR
GR value (THZ1; 0.01 µM): 0.8 GR
GR value (THZ1; 0.03162 µM): 0.397 GR
GR value (THZ1; 0.1 µM): 0.154 GR
GR value (THZ1; 0.3162 µM): 0.0808 GR
GR value (THZ1; 1 µM): 0.0457 GR
GR value (THZ531 [1]; 0.0001 µM): 1.12 GR
GR value (THZ531 [1]; 0.0003162 µM): 0.893 GR
GR value (THZ531 [1]; 0.001 µM): 0.907 GR
GR value (THZ531 [1]; 0.003162 µM): 1.12 GR
GR value (THZ531 [1]; 0.01 µM): 0.883 GR
GR value (THZ531 [1]; 0.03162 µM): 0.809 GR
GR value (THZ531 [1]; 0.1 µM): 0.411 GR
GR value (THZ531 [1]; 0.3162 µM): 0.0512 GR
GR value (THZ531 [1]; 1 µM): 0.151 GR
GR value (BSJ-03-123; 0.001 µM): 0.979 GR
GR value (BSJ-03-123; 0.003162 µM): 0.927 GR
GR value (BSJ-03-123; 0.01 µM): 0.777 GR
GR value (BSJ-03-123; 0.03162 µM): 0.873 GR
GR value (BSJ-03-123; 0.1 µM): 0.889 GR
GR value (BSJ-03-123; 0.3162 µM): 0.829 GR
GR value (BSJ-03-123; 1 µM): 0.666 GR
GR value (BSJ-03-123; 3.162 µM): 0.768 GR
GR value (BSJ-03-123; 10 µM): 0.0981 GR
GR value ([2]; 0.0001 µM): 0.96 GR
GR value ([2]; 0.0003162 µM): 0.998 GR
GR value ([2]; 0.001 µM): 1.06 GR
GR value ([2]; 0.003162 µM): 1.03 GR
GR value ([2]; 0.01 µM): 0.784 GR
GR value ([2]; 0.03162 µM): 0.0982 GR
GR value ([2]; 0.1 µM): 0.14 GR
GR value ([2]; 0.3162 µM): 0.0849 GR
GR value ([2]; 1 µM): 0.0949 GR
GR value ([3]; 0.001 µM): 0.929 GR
GR value ([3]; 0.003162 µM): 0.906 GR
GR value ([3]; 0.01 µM): 0.876 GR
GR value ([3]; 0.03162 µM): 0.855 GR
GR value ([3]; 0.1 µM): 0.809 GR
GR value ([3]; 0.3162 µM): 0.627 GR
GR value ([3]; 1 µM): 0.642 GR
GR value ([3]; 3.162 µM): 0.545 GR
GR value ([3]; 10 µM): 0.309 GR
GR value (YKL-5-124; 0.001 µM): 0.459 GR
GR value (YKL-5-124; 0.003162 µM): 0.432 GR
GR value (YKL-5-124; 0.01 µM): 0.377 GR
GR value (YKL-5-124; 0.03162 µM): 0.409 GR
GR value (YKL-5-124; 0.1 µM): 0.291 GR
GR value (YKL-5-124; 0.3162 µM): 0.228 GR
GR value (YKL-5-124; 1 µM): 0.337 GR
GR value (YKL-5-124; 3.162 µM): 0.288 GR
GR value (YKL-5-124; 10 µM): -0.165 GR
GR value (LEE011/Ribociclib; 0.001 µM): 0.881 GR
GR value (LEE011/Ribociclib; 0.003162 µM): 1.03 GR
GR value (LEE011/Ribociclib; 0.01 µM): 1.03 GR
GR value (LEE011/Ribociclib; 0.03162 µM): 0.891 GR
GR value (LEE011/Ribociclib; 0.1 µM): 1.03 GR
GR value (LEE011/Ribociclib; 0.3162 µM): 0.883 GR
GR value (LEE011/Ribociclib; 1 µM): 0.833 GR
GR value (LEE011/Ribociclib; 3.162 µM): 0.813 GR
GR value (LEE011/Ribociclib; 10 µM): 0.829 GR
GR value ([4]; 0.0003162 µM): 0.895 GR
GR value ([4]; 0.001 µM): 1 GR
GR value ([4]; 0.003162 µM): 0.904 GR
GR value ([4]; 0.01 µM): 0.913 GR
GR value ([4]; 0.03162 µM): 0.889 GR
GR value ([4]; 0.1 µM): 0.798 GR
GR value ([4]; 0.3162 µM): 0.851 GR
GR value ([4]; 1 µM): 0.753 GR
GR value ([4]; 3.162 µM): 0.693 GR
GR50, 72 h (THZ531 [5]): 0.0588 µM
GR50, 72 h (Tivantinib/ARQ197): 0.816 µM
GR50, 72 h (Paclitaxel): 0.00379 µM
GR50, 72 h (senexin b): > 10 µM
GR50, 72 h (Pictilisib/GDC0941): 0.208 µM
GR50, 72 h (AZD6738): 8.72 µM
GR50, 72 h (Ceritinib/LDK378): 4.75 µM
GR50, 72 h (Rucaparib): > 10 µM
GR50, 72 h (BSJ-01-175): 0.0167 µM
GR50, 72 h (Cediranib/AZD2171): 7.85 µM

HCC1143
GR value (THZ1; 0.0001 µM): 0.953 GR
GR value (THZ1; 0.0003162 µM): 1.04 GR
GR value (THZ1; 0.001 µM): 1 GR
GR value (THZ1; 0.003162 µM): 0.989 GR
GR value (THZ1; 0.01 µM): 0.908 GR
GR value (THZ1; 0.03162 µM): 0.303 GR
GR value (THZ1; 0.1 µM): -0.271 GR
GR value (THZ1; 0.3162 µM): -0.266 GR
GR value (THZ1; 1 µM): -0.31 GR
GR value (THZ531 [1]; 0.0001 µM): 0.974 GR
GR value (THZ531 [1]; 0.0003162 µM): 0.976 GR
GR value (THZ531 [1]; 0.001 µM): 1.03 GR
GR value (THZ531 [1]; 0.003162 µM): 0.957 GR
GR value (THZ531 [1]; 0.01 µM): 1.02 GR
GR value (THZ531 [1]; 0.03162 µM): 0.937 GR
GR value (THZ531 [1]; 0.1 µM): 0.689 GR
GR value (THZ531 [1]; 0.3162 µM): -0.125 GR
GR value (THZ531 [1]; 1 µM): -0.228 GR
GR value (BSJ-03-123; 0.001 µM): 0.905 GR
GR value (BSJ-03-123; 0.003162 µM): 0.89 GR
GR value (BSJ-03-123; 0.01 µM): 0.906 GR
GR value (BSJ-03-123; 0.03162 µM): 0.858 GR
GR value (BSJ-03-123; 0.1 µM): 0.861 GR
GR value (BSJ-03-123; 0.3162 µM): 0.797 GR
GR value (BSJ-03-123; 1 µM): 0.613 GR
GR value (BSJ-03-123; 3.162 µM): 0.481 GR
GR value (BSJ-03-123; 10 µM): 0.028 GR
GR value ([2]; 0.0001 µM): 0.993 GR
GR value ([2]; 0.0003162 µM): 0.988 GR
GR value ([2]; 0.001 µM): 0.99 GR
GR value ([2]; 0.003162 µM): 1.04 GR
GR value ([2]; 0.01 µM): 0.95 GR
GR value ([2]; 0.03162 µM): -0.238 GR
GR value ([2]; 0.1 µM): -0.231 GR
GR value ([2]; 0.3162 µM): -0.252 GR
GR value ([2]; 1 µM): -0.228 GR
GR value ([3]; 0.001 µM): 0.881 GR
GR value ([3]; 0.003162 µM): 0.924 GR
GR value ([3]; 0.01 µM): 0.746 GR
GR value ([3]; 0.03162 µM): 0.604 GR
GR value ([3]; 0.1 µM): 0.406 GR
GR value ([3]; 0.3162 µM): 0.282 GR
GR value ([3]; 1 µM): 0.178 GR
GR value ([3]; 3.162 µM): 0.142 GR
GR value ([3]; 10 µM): -0.0908 GR
GR value (YKL-5-124; 0.001 µM): 0.423 GR
GR value (YKL-5-124; 0.003162 µM): 0.398 GR
GR value (YKL-5-124; 0.01 µM): 0.336 GR
GR value (YKL-5-124; 0.03162 µM): 0.241 GR
GR value (YKL-5-124; 0.1 µM): 0.223 GR
GR value (YKL-5-124; 0.3162 µM): 0.183 GR
GR value (YKL-5-124; 1 µM): 0.142 GR
GR value (YKL-5-124; 3.162 µM): 0.0598 GR
GR value (YKL-5-124; 10 µM): -0.0734 GR
GR value (LEE011/Ribociclib; 0.001 µM): 0.856 GR
GR value (LEE011/Ribociclib; 0.003162 µM): 0.876 GR
GR value (LEE011/Ribociclib; 0.01 µM): 0.848 GR
GR value (LEE011/Ribociclib; 0.03162 µM): 0.74 GR
GR value (LEE011/Ribociclib; 0.1 µM): 0.753 GR
GR value (LEE011/Ribociclib; 0.3162 µM): 0.712 GR
GR value (LEE011/Ribociclib; 1 µM): 0.72 GR
GR value (LEE011/Ribociclib; 3.162 µM): 0.551 GR
GR value (LEE011/Ribociclib; 10 µM): 0.311 GR
GR value ([4]; 0.0003162 µM): 0.997 GR
GR value ([4]; 0.001 µM): 1.01 GR
GR value ([4]; 0.003162 µM): 1.01 GR
GR value ([4]; 0.01 µM): 0.955 GR
GR value ([4]; 0.03162 µM): 0.793 GR
GR value ([4]; 0.1 µM): 0.652 GR
GR value ([4]; 0.3162 µM): 0.503 GR
GR value ([4]; 1 µM): 0.392 GR
GR value ([4]; 3.162 µM): 0.275 GR
GR50, 72 h (THZ531 [5]): 0.131 µM
GR50, 72 h (Tivantinib/ARQ197): 0.278 µM
GR50, 72 h (Paclitaxel): 0.00207 µM
GR50, 72 h (senexin b): > 10 µM
GR50, 72 h (Pictilisib/GDC0941): 0.978 µM
GR50, 72 h (AZD6738): 5.13 µM
GR50, 72 h (Ceritinib/LDK378): 1.45 µM
GR50, 72 h (Rucaparib): > 10 µM
GR50, 72 h (BSJ-01-175): 0.0506 µM
GR50, 72 h (Cediranib/AZD2171): 3.73 µM
